Results: US20260335348A1, “PHARMACEUTICAL FORMS OF A CD73 INHIBITOR” (ORIC Pharmaceuticals, Inc., priority 2022, published 2026)
In brackets after ≈: the same amount, converted by molar mass. Read-outs that look alike come from different tables or passages of the source.

How the values were obtained:
[1] = Solubility of gentisate Form 2 of Compound 1 in water, SGF, FaSSIF and FeSSIF after 4 hours at 37 °C (HPLC); format: physicochemical
Description: The solubility of a polymorphic form of a gentisate form of Compound 1 was measured in water, simulated gastric fluid (SGF), fasted-state simulated intestinal fluid (FaSSIF), and fed-state simulated intestinal fluid (FeSSIF) after 4 hours and at 37 °C as follows.
The SGF media was prepared by weighing 49.5 mg of NaCl and 25.4 mg of Triton X-100 into a 100-mL volumetric flask. A volume of purified water was added to the flask and the resulting mixture was sonicated until all solids were dissolved. About 1.632 mL of HCl solution (1 M) were then added and sufficient purified water to the target volume and to adjust the pH to 1.8. The solution was then diluted to volume with purified water, mixed well and the pH value was measured to be 1.83.
A FaSSIF buffer was prepared by weighing 340.8 mg of NaH2PO4, 43.0 mg of NaOH and 619.6 mg of NaCl into a 100-mL volumetric flask. A volume of purified water was added to the flask and the resulting mixture was sonicated until the solids had dissolved. A second volume of purified water was added to the flask to adjust the pH to 6.5. The solution was diluted with another volume of purified water, mixed, and the pH value was measured to be 6.54. The FaSSIF media was prepared by weighing 110.4 mg of SIF powder into a 50-mL volumetric flask to which a volume of FaSSIF dissolving buffer was added. The resulting mixture was sonicated until the SIF powder dissolved. Then mixture was then diluted to volume with FaSSIF dissolving buffer and mixed well. The FaSSIF solution was equilibrated for 2 hours at room temperature before it was used.
A FeSSIF dissolving buffer was prepared by weighing 0.82 mL of glacial acetic acid, 404.9 mg of NaOH and 1188.2 mg of NaCl into a 100-mL volumetric flask. A volume of purified water was added to the flask and the mixture was sonicated until the solids were dissolved. A second volume of purified water was added to the target volume to adjust the pH to 5.0. The solution was diluted with a volume of purified water, mixed well the pH value was measured to be 4.96. FeSSIF media was prepared by weighing 559.6 mg of SIF powder into a 50-mL volumetric flask. A volume of FeSSIF dissolving buffer was added to the flask and the resulting mixture was sonicated the SIF powder was dissolved. A second volume FeSSIF dissolving buffer was added and the resulting mixture was mixed well. The FeSSIF solution was equilibrated for 2 hours to room temperature before use.
An Agilent 1260 high performance liquid chromatography (HPLC) instrument equipped with a DAD detector, a Waters H-Class UPLC with PDA detector was used in the solubility measurements using the conditions set forth in Table 6.
About 10 mg of a gentisate Form 2 of Compound 1 (calculated by weight of the free base of Compound 1) was placed into a 3 mL glass vial and 1 mL of the respective media (water, SGF, FaSSIF and FeSSIF) was added into each glass vial. A cap was placed on each of the vials and they were rolled at 37 °C (25 rpm) for 4 hours. The suspension was then extracted into a centrifugation tube prior to centrifugation (10000 rpm, 37 °C, 5 min) and filtration (0.22 μm PTFE membrane). The resulting supernatant was analyzed by HPLC and the pH was determined. The solubility of the polymorphic form of a gentisate Form 2 of Compound 1 measured was as set forth above was as set forth in Table 7.

[2] = Stability of Form 2 of a gentisate form of Compound 1 under storage conditions (reverse-phase HPLC impurities, XRPD); format: physicochemical; conditions: for Total impurities present: reverse-phase HPLC
Description: To measure stability of the Form 2 of a gentisate form of Compound 1 under storage conditions, samples of Form 2 of a gentisate form of Compound 1 were placed in double low-density polyethylene bags with desiccant between the bags and each was placed into a high-density polyethylene drum. One drum was stored at a temperature of 5 °C and samples of the material were taken at 1 month and 3 months, and the samples were analyzed for the presence of impurities. The other drum was stored at a temperature of 25 °C and at 60% relative humidity (RH), samples of the materials were taken at 1 month and 3 months, and the samples were analyzed for the presence of impurities. The amount of the Form 2 of a gentisate form of Compound 1, and the amount ofany impurities, in each sample was measured by reverse-phase high performance liquid chromatography using the test conditions set and solvent gradients forth in Table 13 and Table 14. The samples were tested to determine the amount remaining of Form 2 at each time point, and the measurements were conducted by x-ray powder diffraction (XRPD) according to USP <941>.

[3] = storage 5 °C, initial (time = zero)
[4] = storage 25 °C and 60% RH, 1 month
[5] = storage 25 °C and 60% RH, 3 months
[6] = storage 25 °C and 60% RH, initial (time = zero)

What does the source list for `O=P(O)(O)[C@@](CO)(COCc1nn[nH]n1)OC[C@H]1O[C@@H](n2ncc3c(NC4CCCC4)nc(Cl)nc32)[C@H](O)[C@@H]1O` [Form 2 of a gentisate form of Compound 1]?
pH (of supernatant) ([1]; fasted-state simulated intestinal fluid (FaSSIF)): 2.5; solubility at 4 h ([1]; fasted-state simulated intestinal fluid (FaSSIF), pH 2.5, read-out: Solubility (calculated as the amount of free base of Compound 1)): > 10.2 mg/mL; pH (of supernatant) ([1]; fed-state simulated intestinal fluid (FeSSIF)): 4.4; solubility at 4 h ([1]; fed-state simulated intestinal fluid (FeSSIF), pH 4.4, read-out: Solubility (calculated as the amount of free base of Compound 1)): > 9.42 mg/mL; pH (of supernatant) ([1]; simulated gastric fluid (SGF)): 1.7; solubility at 4 h ([1]; simulated gastric fluid (SGF), pH 1.7, read-out: Solubility (calculated as the amount of free base of Compound 1)): > 9.71 mg/mL; pH (of supernatant) ([1]; water): 1.7; solubility at 4 h ([1]; water, pH 1.7, read-out: Solubility (calculated as the amount of free base of Compound 1)): 26.2 mg/mL (≈ 43.2 mM); XRPD ([2]; storage 5 °C, 1 month): Crystalline; Total impurities present ([2]; storage 5 °C, 1 month): 4.5 % area; XRPD ([2]; storage 5 °C, 3 months): Crystalline; Total impurities present ([2]; storage 5 °C, 3 months): 4.2 % area; XRPD [2, 3]: Crystalline; Total impurities present [2, 3]: 4.4 % area; XRPD [2, 4]: Crystalline; Total impurities present [2, 4]: 4.5 % area; XRPD [2, 5]: Crystalline; Total impurities present [2, 5]: 4.3 % area; XRPD [2, 6]: Crystalline; Total impurities present [2, 6]: 4.4 % area; Stability ([2]; stored at 5 °C): stable up to 3 months; Stability ([2]; stored at 25 °C and at 60% RH): stable up to 3 months
